In brackets after ≈: the same amount, converted by molar mass. Numbered stars: 1 amine (or outer) side, 2 acyl side, 3 side chain; on linkers, the order of the positions; unused ones are H or OH. Square brackets hold non-standard residues; d marks the D form. Peptide text beside a SMILES is read from it. Phe(4-NH2) = Nc1ccc(C[C@H](N)C(=O)O)cc1; Suc = O=C(CCC(=O)[*:2])[*:1]
Tests used:
[1] = system: purified rat peritoneal mast cells; type: cell-based; details: for maximal inhibition of compound 48/80 induced histamine secretion: 600 μg/ml peptide, compound 48/80 concentration not given; for Inhibitor (extent of inhibition of histamine secretion from mast cells): Table 9, incubation with different concentrations of each peptide, then induction of the allergic reaction
Procedure: 37° C. […] Each data point represents the average of duplicate measurements. The spontaneously released histamine was subtracted.
First, the effect of compound 48/80 on exocytosis from intact mast cells was determined. […] Histamine release was determined and is presented as the net secretion that is % of the total cellular histamine following subtraction of the spontaneously released histamine. Half-maximal release was obtained at 0.1 μg/ml while maximal release was obtained at 1-10 μg/ml. Accordingly, in order to analyze the potential of each peptide to block histamine secretion, histamine secretion was induced with 5 μg/ml compound 48/80, a concentration that induces a maximal histamine release, while the cells were incubated in the presence of increasing concentrations of each peptide.
In order to investigate the ability of these peptides to block allergen-induced exocytosis, the peptides were examined for their ability to block compound 48/80 induced histamine secretion from intact mast cells in vitro. Mast cells were incubated with different concentrations of each peptide, followed by induction of histamine secretion by compound 48/80.

[2] = system: abdominal skin of C.R rats; assay: Rat skin test: intradermal injection of peptide, then intradermal compound 48/80 or vehicle, wheal area; type: in vivo; details: for Mean Wheal Area ± STD, Compound 48/80 / Wheal Area, Compound 48/80 (representative experiment): 0.5 hour before allergic induction; for Mean Wheal Area ± STD, Vehicle / Wheal Area, Vehicle (representative experiment): 0.5 hour before; for Mean Wheal Area ± STD, Vehicle: vehicle instead of compound 48/80
Procedure: The hair of the abdominal area of C.R rats was carefully removed with an electric clipper and a depilatory cream. In each animal the abdominal area was divided to six equal zones that were marked by pen. Each zone was either subjected to peptide treatment or served as a control. In the first set of experiments, the peptide was topically applied as follows: 36 μl of peptide solution at the indicated concentration (dissolved in 72% DMSO in saline) was applied on desired abdominal area. In the second set of experiments, the peptide was injected intradermally as follows: 20 μl of peptide solution at different concentrations (dissolved in 10% DMSO in saline) was injected intradermally to an indicated abdominal area using a 27-gauge sterile needle.
Skin tests were performed 0.5, 1 or 2 hours following application of the peptide. Skin tests were performed by injecting intradermally 20 μl of the allergen (0.1 mg/ml compound 48/80 dissolved in saline) or saline alone, into the center of each marked area on the abdominal skin using a 27-gauge sterile needle. The allergic response was monitored by outlining with a marker the wheals which developed in response to allergen or saline treatment.
To quantitate the skin test results, the marker signs were transferred onto paper with scotch tape. The areas of the wheals were outlined and calculated by a computerized planimeter (Hewlett-Packard), as previously described (Sussman et al., 1982).
Tables 10-16 presents the mean areas of the wheals, which developed in response to intradermal injection of each of the tested peptides, followed by either compound 48/80 or DDW injection applied after 0.5 or 1 hour. Two doses were tested for each peptide-20 and 200 μg (injection of 20 μl from a stock solution of 1 mg/ml or 10 mg/m respectively).
Skin tests on rats using compound 48/80 as the allergen assessed the ability of the peptides of the present invention to block allergic cutaneous reactions. The abdominal skin of the rats was subjected to peptide (indicated concentrations are listed in Tables 17A-17B below) or vehicle treatment (intradermal injection); the allergic response was induced by intradermal injection of compound 48/80 at various times; and the allergic response was quantified by calculating the area of the resultant allergic wheals.

[3] = system: purified rat peritoneal mast cells; assay: Histamine secretion from intact mast cells incubated with peptide alone (secretagogue side effect); details: for Secretagogue (histamine secretion following incubation of mast cell with different concentrations of each peptide): Table 9, no allergen; for Secretagogue (histamine secretion following incubation of mast cell with different concentrations of each peptide) / basal level of histamine secretion compared to control cells: peptide alone; for histamine secretion from mast cells on incubation with increasing concentrations of peptide alone: no additional allergen; for basal level of histamine secretion compared to control cells: increasing concentrations
Procedure: Mast cells from the peritoneal cavity of C.R rats were isolated in Tyrode buffer (137 mM NaCl, 2.7 mM KC1, 1 mM MgCl2, 0.4 mM NaH2PO4, 20 mM Hepes, 1.0 mM CaCl2, 5.6 mM glucose, 1 mg/ml BSA, pH 7.2) and purified over a Ficoll gradient. A suspension of washed peritoneal cells was placed over a cushion of 30% Ficoll 400 (Pharmacia Biotech.) in buffered Saline containing 0.1% BSA; and centrifuged at 150O×g for 15 min. The purity of mast cells recovered from the bottom of the tube was >90%, as assessed by toluidine blue staining.
Purified mast cells (duplicated of 10^5 cells/0.5 ml) were incubated in Tyrode buffer with buffer or with desired concentrations of the indicated peptide for 2 h. at. 37° C. Histamine secretion was subsequently stimulated by the indicated concentration of compound 48/80 (Sigma) dissolved in Tyrode buffer. Incubation with compound 48/80 was carried out for 20 mm.in at 37° C. The reaction was terminated by placing the tubes on ice. The cells were sedimented by centrifugation at 150×g for 5 mm.in and the supernatants were collected. The amount of histamine release was determined as previously described (Aridor et al., 1990). Briefly, cell pellets were lysed using 0.1N NaOH and the volume of each sample was adjusted to 0.5 ml by H2O. Histamine content was assayed using the o-phtalaldehyde (OPT) fluorimetric method (Shore et al., 1959). Aliquots of 0.4 ml from the supernatants and cell lysates were incubated with 1.6 ml H20, 0.4 ml 1N NaOH and 0.1 ml of 10 mg/l ml OPT in methanol, for 4 min at room temperature. The reaction was terminated by the addition of 0.2 ml 3N HCl. Samples were centrifuged at 150×g for 5 min. and 0.2 ml samples were transferred to a 96 well plate. The histamine spectrofluorometric assay was run in microplates using a microplates reader (FL-600, Biotek instruments Winooski, Vt., USA). Samples were excited by light at 340 nm and read at 440 nm. Histamine release was calculated as the percentage of total histamine content (supernatant/pellet+supernatant) in each sample. Each data point represents the average of duplicate measurements. The spontaneously released histamine was subtracted.

[4] = intradermal peptide 0.5 hour before allergic induction

| Compound | IC50, compound 48/80 induced histamine secretion [1] [µg/mL] | maximal inhibition of compound 48/80 induced histamine secretion [1] [%] | Inhibitor (extent of inhibition of histamine secretion from mast cells) [1] | block of compound 48/80 induced allergic reaction in vivo, rat skin ([2]; intradermal peptide) | Mean Wheal Area ± STD, Compound 48/80 ([2]; intradermal peptide 1 mg/ml) | Mean Wheal Area ± STD, Vehicle ([2]; intradermal peptide 1 mg/ml) | Mean Wheal Area ± STD, Compound 48/80 ([2]; intradermal peptide 10 mg/ml) | Mean Wheal Area ± STD, Vehicle ([2]; intradermal peptide 10 mg/ml) | reduction of compound 48/80 induced allergic reaction [2, 4] | Secretagogue (histamine secretion following incubation of mast cell with different concentrations of each peptide) [3] | histamine secretion from mast cells on incubation with increasing concentrations of peptide alone [3] | basal level of histamine secretion compared to control cells [3] | reduction of compound 48/80 induced allergic reaction ([2]; intradermal peptide, lower dose or 1 hour before allergic induction) | Wheal Area, Vehicle (representative experiment) ([2]; intradermal peptide 1 mg/ml) [mm^2] | Wheal Area, Compound 48/80 (representative experiment) ([2]; intradermal peptide 1 mg/ml) [mm^2] | Wheal Area, Vehicle (representative experiment) ([2]; intradermal peptide 10 mg/ml) [mm^2] | Wheal Area, Compound 48/80 (representative experiment) ([2]; intradermal peptide 10 mg/ml) [mm^2] |
| --- | --- | --- | --- | --- | --- | --- | --- | --- | --- | --- | --- | --- | --- | --- | --- | --- | --- |
| CC(C)C[C@H](NC(=O)CNC(=O)[C@H](CS)NC(=O)[C@H](CCC(=O)O)NC(=O)[C@H](CCCCN)NC(=O)[C@H](CC(C)C)NC(=O)[C@H](CC(N)=O)NC(=O)[C@H](CCC(=O)O)NC(=O)[C@H](CCCCN)NC(=O)[C@@H]1CCCN1C(=O)[C@H](C)NC(=O)[C@H](CC(C)C)NC(=O)[C@H](CC(C)C)NC(=O)[C@H](C)NC(=O)[C@H](CC(C)C)NC(=O)[C@H](CC(C)C)NC(=O)[C@@H](NC(=O)[C@H](C)NC(=O)[C@@H]1CCCN1C(=O)[C@H](CC(C)C)NC(=O)[C@H](CC(C)C)NC(=O)[C@H](C)NC(=O)[C@@H](NC(=O)[C@H](C)NC(=O)[C@H](C)NC(=O)CCC(=O)O)C(C)C)C(C)C)C(=O)N[C@@H](Cc1ccc(O)cc1)C(=O)O [WALL012] (Suc-AAVALLPAVLLALLAPKENLKECGLY-OH; C-terminus assumed) | 320 (≈ 115 µM) | 97.5 | +++ (+++ Potent inhibitor (≧80% inhibition)) | effectively block the allergic response in vivo | 104.8 ± 12.6 (n = 5) mm^2 | 71.6 ± 13.8 (n = 5) mm^2 | 75.1 ± 8.5 (n = 5)** mm^2 | 66.7 ± 10.1 (n = 5) mm^2 | significant inhibition | − | did not result in histamine secretion | minor inhibition of the basal level of histamine secretion |  |  |  |  |  |
| CC(C)C[C@H](NC(=O)CNC(=O)[C@H](CS)NC(=O)[C@H](CCC(=O)O)NC(=O)[C@H](CCCCN)NC(=O)[C@H](CC(C)C)NC(=O)[C@H](CC(N)=O)NC(=O)[C@H](C)NC(=O)[C@H](CCCCN)NC(=O)[C@@H]1CCCN1C(=O)[C@H](C)NC(=O)[C@H](CC(C)C)NC(=O)[C@H](CC(C)C)NC(=O)[C@H](C)NC(=O)[C@H](CC(C)C)NC(=O)[C@H](CC(C)C)NC(=O)[C@@H](NC(=O)[C@H](C)NC(=O)[C@@H]1CCCN1C(=O)[C@H](CC(C)C)NC(=O)[C@H](CC(C)C)NC(=O)[C@H](C)NC(=O)[C@@H](NC(=O)[C@H](C)NC(=O)[C@H](C)NC(=O)CCC(=O)O)C(C)C)C(C)C)C(=O)N[C@@H](Cc1ccc(O)cc1)C(=O)O [WALL013] (Suc-AAVALLPAVLLALLAPKANLKECGLY-OH; C-terminus assumed) | 245 (≈ 89.5 µM) | 100 | +++ (+++ Potent inhibitor (≧80% inhibition)) | effectively block the allergic response in vivo | 89.7 ± 13.7 (n = 4)** mm^2 | 74.7 ± 12.0 (n = 4) mm^2 | 96.4 ± 28.4 (n = 4)* mm^2 | 77.3 ± 13.5 (n = 4) mm^2 | significantly reduced | − | did not result in histamine secretion | minor inhibition of the basal level of histamine secretion |  |  |  |  |  |
| CC(C)C[C@H](NC(=O)CNC(=O)[C@H](CS)NC(=O)[C@H](CCC(=O)O)NC(=O)[C@H](CCCCN)NC(=O)[C@H](CC(C)C)NC(=O)[C@H](CC(N)=O)NC(=O)[C@H](CC(N)=O)NC(=O)[C@H](CCCCN)NC(=O)[C@@H]1CCCN1C(=O)[C@H](C)NC(=O)[C@H](CC(C)C)NC(=O)[C@H](CC(C)C)NC(=O)[C@H](C)NC(=O)[C@H](CC(C)C)NC(=O)[C@H](CC(C)C)NC(=O)[C@@H](NC(=O)[C@H](C)NC(=O)[C@@H]1CCCN1C(=O)[C@H](CC(C)C)NC(=O)[C@H](CC(C)C)NC(=O)[C@H](C)NC(=O)[C@@H](NC(=O)[C@H](C)NC(=O)[C@H](C)NC(=O)CCC(=O)O)C(C)C)C(C)C)C(=O)N[C@@H](Cc1ccc(N)cc1)C(=O)O [WALL014] (Suc-AAVALLPAVLLALLAPKNNLKECGL[Phe(4-NH2)]-OH; C-terminus assumed) | 230 (≈ 82.8 µM) | 83 | +++ (+++ Potent inhibitor (≧80% inhibition)) | effectively block the allergic response in vivo | 108.1 ± 15.0 (n = 2) mm^2 | 87.2 ± 1.9 (n = 2) mm^2 | 91.5 ± 34.9 (n = 2) mm^2 | 100.1 ± 38.9 (n = 2) mm^2 | significantly reduced | − | did not result in histamine secretion |  | no significant inhibition |  |  |  |  |
| CC(C)C[C@H](NC(=O)CNC(=O)[C@H](CS)NC(=O)[C@H](CCC(=O)O)NC(=O)[C@H](CCCCN)NC(=O)[C@H](CC(C)C)NC(=O)[C@H](CC(N)=O)NC(=O)[C@H](CCC(N)=O)NC(=O)[C@H](CCCCN)NC(=O)[C@@H]1CCCN1C(=O)[C@H](C)NC(=O)[C@H](CC(C)C)NC(=O)[C@H](CC(C)C)NC(=O)[C@H](C)NC(=O)[C@H](CC(C)C)NC(=O)[C@H](CC(C)C)NC(=O)[C@@H](NC(=O)[C@H](C)NC(=O)[C@@H]1CCCN1C(=O)[C@H](CC(C)C)NC(=O)[C@H](CC(C)C)NC(=O)[C@H](C)NC(=O)[C@@H](NC(=O)[C@H](C)NC(=O)[C@H](C)NC(=O)CCC(=O)O)C(C)C)C(C)C)C(=O)N[C@@H](Cc1ccc(O)cc1)C(=O)O [WALL015] (Suc-AAVALLPAVLLALLAPKQNLKECGLY-OH; C-terminus assumed) | 300 (≈ 107 µM) | 75 | ++ (++ Moderate inhibitor (50%-70% inhibition)) | effectively block the allergic response in vivo |  |  |  |  | reduced the allergic reaction | − | did not result in histamine secretion | minor inhibition of the basal level of histamine secretion |  | 110.4 | 100.1 | 89.7 | 75.3 |

Reference: patent publication US20070009544A1, “Anti-allergic complex molecules” (priority 1999, published 2007)
